According to patent US6262023A, “WD-40 derived peptides and uses thereof” (The Board of Trustees of the Leland Stanford Junior …, priority 1995, dated 2001):
“Also recorded” adds a separate entry of the source.

Key:
δ and εPKC isozymes = assay: PKC isozyme translocation and degradation in cardiac myocytes; type: cell-based, rat
Source text: This peptide-induced translocation was followed by degradation of δ and εPKC isozymes.

[1] = test system: PKC-mediated germinal vesicle breakdown (GVBD) in Xenopus oocytes; assay: PKC-mediated Xenopus oocyte maturation (germinal vesicle breakdown, GVBD) after peptide microinjection; type: cell-based
Protocol: Exposure to insulin induces maturation in Xenopus oocytes via a PKC-dependent pathway (Smith, et al., 1992). The maturation response may be quantified by monitoring the appearance of a white spot in the animal hemisphere of the oocyte, indicating germinal vesicle breakdown (GVBD) and maturation. To assess the effects of RACK1 WD-40-derived peptides on insulin-induced PKC-mediated maturation, 50 nl of a 20 mM NaCl solution containing the indicated peptides [peptide I (SEQ ID NO:1; .circle-solid.), peptide rVI (SEQ ID NO:7; .box-solid.), or injection solution (.quadrature.)] […] One hour following the peptide injections, the oocytes were exposed to a solution containing insulin (8.25 μg/ml) for 2 minutes (t=0). 10-15 oocytes were used for each sample.
The data, representative of three independent experiments, are expressed as the percent of oocytes with GVBD following insulin exposure and are plotted as a function of time in FIG. 5.

PKC [2] = assay: PKC autophosphorylation; type: biochemical, rat; conditions: 10 μM peptide; no PS, DG, calcium
Protocol: Rat brain PKC (~10 nM) was incubated with mild agitation in a final volume of 250 μl of overlay buffer, as in Example 1 either with anti-βPKC pseudosubstrate antibodies (1:10 dilution, Life Technologies, Gaithersburg, Md.) or with the indicated peptide (10 μM). Where indicated, PS (50 μg/ml), DG (0.8 μg/ml) and CaCl2 (1 mM) were also added. The amount of autophosphorylation was determined after 2 hours for the reaction with the anti-pseudosubstrate antibodies, or after 15 minutes for the other samples. 50 μl of a buffer comprised of 20 mM Tris-HCl (pH 7.5), 20 mM MgCl2, 20 μM ATP and 5 μci/ml [γ-^32 P]ATP. The mixture was incubated for 15 minutes at room temperature and the reaction was stopped by adding 60 μl sample buffer (see Example 9). The samples were then boiled for 10 minutes, loaded onto a 10% SDS-PAGE mini gel and electrophoresed. The gel was fixed with 50% methanol and 10% acetic acid for 1 hour, and the autophosphorylation of PKC was determined by autoradiography.

βPKC [3] = molecular target: T1, βPKC (Rattus norvegicus, UniProt P68403); assay: Sensitivity of βPKC to Arg-C endopeptidase (nicking); type: biochemical; design: All the solutions contained 5 nM rat brain PKC in peptide overlay buffer; from tissue; host or cells: rat brain; conditions: 2.5 μg/ml PS and 50 μM CaCl2; peptide 10 μM; Arg-C 5 units/ml
Source text: Upon activation of PKC, a pseudosubstrate autoinhibitory sequence at the N-terminus of the molecule dissociates from the catalytic site and becomes sensitive to endopeptidase Arg-C (Orr, et al.). In the absence of PKC activators, exposure of the 80 kDa βPKC to endopeptidase Arg-C has no effect on the enzyme (see FIG. 7, lane 1). In the presence of the PKC activators PS, DG and calcium, however, exposure of βPKC to Arg-C results in a "nicking" of the PKC (i.e. limited proteolysis generating a 78 kDa fragment and several small fragments (see FIG. 7, lane 2)). Continued exposure to Arg-C results in the disappearance of βPKC (Orr, et al.). The present experiment tests whether peptides derived from the WD-40 region of RACK1 alter the sensitivity of βPKC to endopeptidase Arg-C.
The methods used to assay Arg-C sensitivity are a modification of methods described by Orr, et al. Rat brain PKC (~5 nM) was incubated at room temperature in 500 μl of 20 mM Tris-HCl buffer (pH 7.5) alone or with Arg-C (5 units/ml) in the presence or absence of the indicated peptides (final concentration 10 μM or as indicated), PS, DG, and calcium (as indicated). 50 μl aliquots were removed into 20 μl of sample buffer during the reaction as indicated (samples in all the lanes were incubated for 30 minutes, except lanes 5, and 6, which were incubated for 5 and 15 minutes, respectively). The samples were boiled for 10 minutes at 80° C. and loaded onto 8% SDS-PAGE. βPKC was detected by Western blot analysis using anti-βPKC antibodies as described in Examples 6 and 8.
PKC was incubated for the indicated time alone (lane 1) or in the presence of Arg-C (lanes 2-9), with DG (0.8 μg/ml), PS (50 μg/ml) and CaCl2 (1 mM; lane 2), with PS (50 μg/ml) and CaCl2 (1 mM; lane 3), with PS (2.5 μg/ml) and CaCl2 (50 μM; lane 4); with PS (2.5 μg/ml), CaCl2 (50 μM) and with either peptide rVI (SEQ ID NO:7; 10 μM; lanes 5-7), control peptide (SEQ ID NO: 9; lane 8) or with peptide I (SEQ ID) NO:1; lane 9).

βPKC [4] = molecular target: T1, βPKC; assay: Overlay assay: binding of PKC to immobilized recombinant RACK1; design: from tissue; host or cells: PKC from rat brain; RACK1 made in-house in TB1 E. coli (pMAL-c2)
Protocol: (§1) Purified recombinant RACK1 protein (100-250 μg per lane, produced as detailed in Example 2) was subjected to SDS/PAGE and blotted onto nitrocellulose membranes (Ausubel). The nitrocellulose membranes were cut into strips, which were incubated for 0.5 hr in overlay buffer (Example 1) in the presence or absence of a mixture of PKC isozymes (α, β, γ, ε and .zeta., ~10 nM each final concentration) and PKC activators (60 μg/ml phosphatidylserine (PS), 2 μg/ml diacylglycerol (DG), and 1 mM CaCl2). Unbound material was removed by five washes, 5-min each, in overlay wash buffer. Where indicated, PKC activators were present during the incubation of PKC with the nitrocellulose strips. The conditions for each sample and corresponding results are presented in part D below.
PKC bound to RACK1 immobilized on nitrocellulose strips was detected as follows. […]
The concentration dependence of PKC binding to RACK1 was characterized with βPKC, since this isozyme is a major component of the PKC mixture used for the overlay assay. The mean half maximal binding was ~0.375 nM, and maximal binding was ~4 nM (n=3; values reflect binding of βPKC isozyme in the presence of other PKC isozymes and was determined by scanning autoradiograms in the linear range of detection, as described in Mochly-Rosen, et al., (1991).

PKC binding to RACK1 = assay: Overlay / overlay-extraction assay: inhibition of PKC binding to recombinant RACK1 by peptides; design: species or system rat; conditions: for inhibition of the binding of PKC to RACK1, peptides rI-rVII: overlay assay, concentration not given
Protocol: as §1
The variation in the overlay protocol consisted of incubating the putative binding peptides with a mixture of PKC isozymes for 15 minutes at room temperature before the mixture was used to contact the nitrocellulose strips containing immobilized RACK1.
Nitrocellulose strips containing immobilized RACK1, that had been contacted with a solution containing a mixture of PKC isozymes, were washed and the area corresponding to the 36 kDa (RACK1-containing) band was cut out. The pieces (containing PKC/RACK1 complexes) were incubated with sample buffer for 10 minutes at 80° C. The sample buffer and the nitrocellulose pieces were then placed in wells in the PAGE gel and subjected to SDS-PAGE to elute the bound proteins. The gel was blotted onto nitrocellulose and a Western blot analysis was carried out using the mixture of antibodies (specific for PKC α, β, γ, δ, ε and .zeta. isozymes) described in Example 1 part B. Bound antibodies were detected by ^125 I-protein A.
Peptides derived from or homologous to WD-40 repeats of RACK1 were tested for their ability to inhibit PKC binding to recombinant RACK1. Binding of PKC to RACK1 was carried out using a variation of the overlay procedure described in Example 3 part B. In the experimental samples, peptides were incubated with a solution containing a mixture of rat brain PKC isozymes (~10 nM each) for 15 minutes at room temperature.
Following completion of the modified overlay protocol, the samples were subjected to the overlay-extraction protocol detailed in part B, above.

PKC [5] = assay: Histone type IIIs phosphorylation by PKC; type: biochemical; conditions: peptide rVI 10 μM; PKC ~10 nM
Protocol: Histone type IIIs (Sigma Chemical Company, St. Louis, Mo.) was phosphorylated by PKC (~10 nM) in the absence (lane 1) and presence of peptide rVI (10 μM) (lanes 2 and 3) and in the presence and absence of DG (0.8 μg/ml), PS (50 μg/ml) and CaCl2 (1 mM) (lane 3). The results are expressed as percentage of control that is the amount of Histone phosphorylation by PKC in the presence of DG (0.8 μg/ml), PS (50 μg/ml) and CaCl2 (1 mM). The results are the average±SEM of two independent experiments. PKC was first incubated with the peptide rVI (10 μM) for 15 minutes in overlay buffer as described above. Histone type IIIs (40 μg/ml) was added in Tris-HCl (20 mM), MgCl2 (20 mM), ATP (20 μM) and [γ-^32 P]ATP (5 μci/ml) with or without PS (50 μg/ml), DG (0.8 μg/ml) and CaCl2 (1 mM). Histone phosphorylation was determined by autoradiography as above.

[6] = 50 μM peptide microinjected, insulin 8.25 μg/ml
[7] = peptide introduced into cardiac myocytes

Compound: NC[C@H](O)c1ccc(O)c(O)c1 [norepinephrine, reference compound]
- translocation of δ and εPKC isozymes from the cytosolic to the particulate fraction (δ and εPKC isozymes; NE, 2 μM): causes translocation of δ and εPKC isozymes from the cytosolic to the particulate fraction

Compound: control peptide: control peptide (SEQ ID NO:9) used as negative control (LKGKIL) [reference compound]
- delay to onset of maturation after exposure to insulin [1, 6]: 4 to 5 h
- time at which plateau of GVBD is reached [1, 6]: 10 to 12 h
- plateau of % GVBD following insulin exposure ([1]; 50 nl of 50 μM peptide microinjected, insulin 8.25 μg/ml): 85-90 % GVBD
- induction of PKC autophosphorylation in the absence of PKC activators (PKC [2]): Neither peptide I nor control peptide induced PKC autophosphorylation
- nicking of βPKC by Arg-C (78 kDa fragment) at low concentrations of activators (βPKC [3]): nicking of βPKC did not occur

Compound: maltose binding protein
- binding of PKC to control proteins (βPKC [4]): did not bind PKC

Compound: peptide rI: synthetic peptide based on the corresponding region in WD-40 repeat I of RACK1 (VTQIATT)
- inhibition of the binding of PKC to RACK1, peptides rI-rVII (PKC binding to RACK1): effective inhibitors

Compound: peptide rII: synthetic peptide based on the corresponding region in WD-40 repeat II of RACK1 (FVSDVVI)
- inhibition of the binding of PKC to RACK1, peptides rI-rVII (PKC binding to RACK1): effective inhibitors

Compound: peptide rIII: seven amino acid peptide identical to a segment of RACK1 WD-40 repeat III (DVLSVAF)
- relative effectiveness in inhibiting PKC binding to RACK1 (PKC binding to RACK1; 10 μM peptide): somewhat more effective than peptide rVI
- inhibition of PKC binding to RACK1 (FIG. 3) (PKC binding to RACK1; 10 μM peptide preincubated with PKC): inhibit the binding of PKC to RACK1
- inhibition of the binding of PKC to RACK1, peptides rI-rVII (PKC binding to RACK1): inhibited the binding of PKC to RACK1
- effect on insulin-induced oocyte maturation ([1]; peptide microinjected (rVI 50 μM; rIII 50 and 500 μM)): enhances insulin-induced oocyte maturation; also recorded: potentiated the effects of insulin on oocyte maturation
- fraction of oocytes exposed to insulin that reach maturation ([1]; peptide microinjected, insulin): ~100%
- induction of PKC-mediated histone phosphorylation in the absence of PS, DG and calcium (PKC [5]): similarly induced histone phosphorylation
- effect on NE-induced translocation of PKC isozymes (δ and εPKC isozymes; norepinephrine 2 μM, peptide introduced into cardiac myocytes): further enhanced
- degradation of δ and εPKC isozymes (δ and εPKC isozymes; [7]): followed by degradation of these activated isozymes
- translocation / distribution of δ and εPKC isozymes in the absence of hormone stimulation (δ and εPKC isozymes; [7]): caused an immediate translocation of δ and εPKC isozymes
- nicking of βPKC by Arg-C (78 kDa fragment) at low concentrations of activators (βPKC [3]): resulted in the appearance of the 78 kDa nicked PKC fragment

Compound: peptide rV: synthetic peptide based on the corresponding region in WD-40 repeat V of RACK1 (GYLNTVT)
- inhibition of the binding of PKC to RACK1, peptides rI-rVII (PKC binding to RACK1): lesser inhibitory effect

Compound: peptide rVII: synthetic peptide based on the corresponding region in WD-40 repeat VII of RACK1 (PQCTSLA)
- inhibition of the binding of PKC to RACK1, peptides rI-rVII (PKC binding to RACK1): no inhibition

Compound: rIV: synthetic peptide based on the corresponding region in WD-40 repeat IV of RACK1 (VSCVRFS)
- inhibition of the binding of PKC to RACK1, peptides rI-rVII (PKC binding to RACK1): lesser inhibitory effect
